{"source": "paper PMC10585379", "about": "“Hydrophobic moment drives penetration of bacterial membranes by transmembrane peptides” (The Journal of Biological Chemistry, 2023)", "key": {"E. coli K12 [1]": {"test_system": "E. coli K12", "assay_type": "cell-based, Escherichia coli", "conditions": "E. coli K12, Mueller-Hinton broth, 50,000 CFU/well, up to 64 μM peptide, 37 °C, 20 h, OD 600 nm; concentration giving >99% reduction in growth; mean and standard deviation of the mean", "description": "Overnight cultures of E. coli K-12 grown in Mueller-Hinton broth were incubated at 50,000 CFU/well with up to 64 μM of peptide in 96-well plates (Corning, Ref 3598). Plates were then incubated at 37 °C for 20 h, after which the optical density (OD) was measured at 600 nm. Minimum inhibitory concentration (MIC) was determined as the peptide concentration resulting in >99% reduction in growth."}, "[2]": {"experiment": "Tryptophan quenching assay with dibrominated lipid LUVs", "assay_type": "physicochemical", "conditions": "5 μM peptide or BSA, peptide-to-lipid ratio of 62.5, 0-30% brominated lipid, Stern-Volmer plot; mean of three independent analyses", "description": "Large unilamellar vesicles (LUVs) were prepared using methods previously described ([14]). Briefly, 1-palmitoyl-2-oleoyl-sn-glycero-3-phosphoethanolamine (POPE) and 1-palmitoyl-2-oleoyl-sn-glycero-3-phospho-(1′-rac-glycerol) (POPG) (Avanti Polar Lipids) were combined in a 3:1 ratio, respectively, in chloroform and dried to a film before water washing and lyophilizing into a powder. This powder was resuspended in Tris-Cl buffer (10 mM Tris, 10 mM NaCl, pH 7), freeze-thawed 5× (dry ice – 50 °C water bath) and extruded through a mini-extruder fitted with a 0.2 μm Whatman Nuclepore polycarbonate membrane filter (Cytiva) at least 15× to form LUVs. Where applicable, 1-palmitoyl-2-(6,7-dibromo)stearoyl-sn-glycero-3-phosphocholine (PC-Br ([6], [7])) or 1-palmitoyl-2-(11,12-dibromo)stearoyl-sn-glycero-3-phosphocholine (PC-Br ([11], [12])) (Avanti Polar Lipids) were substituted for POPE at the given percentages and incorporated into LUVs as described.\nBrominated lipid-containing LUVs (0%, 10%, 20%, and 30%) were combined with 5 μM peptide and tryptophan emission fluorescence was recorded from 300 to 400 nm using a 280 nm excitation wavelength. Fluorescence spectra were plotted and the area under the curve was used to generate a Stern-Volmer plot of initial fluorescence/quenched fluorescence (Fo/F) against percentage brominated lipid. […]"}, "[3]": {"experiment": "Circular dichroism, peptide secondary structure", "assay_type": "physicochemical", "conditions": "20 μM peptide, 10 mM Tris-Cl, 10 mM NaCl, pH 7, minima at 208 and 222 nm, average of three independent analyses", "description": "Circular dichroism (CD) spectra of peptides were recorded between 190 and 250 nm on a Jasco J-1500 CD spectropolarimeter using a 0.1 cm pathlength quartz cuvette, scanning at […] with three accumulations. Peptide spectra were acquired in either water, 20% acetonitrile, 140 mM sodium dodecyl sulfate (SDS), or 3:1 POPE:POPG, in buffer (10 mM Tris-Cl, 10 mM NaCl, pH 7), at a constant peptide concentration of 20 μM and then plotted using GraphPad Prism 9. Data are presented from 200 to 250 nm for ease of visualization. Raw millidegree (mdeg) spectra were background subtracted and converted to mean residue ellipticity (MRE) using Equation 1 below, where c is the concentration in μM, l is the pathlength in cm, and n is the number of residues.(1) MRE=100(mdeg)/cln\nUsing the MRE value at 222 nm, the peptide helical percentage was estimated using Equation 2 below ([45], [46]), where MRE222 is the MRE value at 222 nm and n is the number of peptide bonds.(2) %Helix=100(MRE222/(−39,500(1−2.57/n)))"}, "E. coli K12 [4]": {"test_system": "E. coli K12", "assay_type": "cell-based, Escherichia coli", "conditions": "E. coli K12 in M9 minimal media, 30 μM DiOC2(3) 5 min, 20 μM CCCP or 8 μM peptide, 37 °C, up to 180 min, ex 450/em 510 nm; duplicate, three independent days", "procedure": "Overnight cultures of E. coli K12 grown in Luria-Bertani (LB) broth were pelleted and resuspended to an OD600 of 0.4 in M9 minimal media. Cultures were grown at 37 °C for 30 min prior to being incubated with 10 mM EDTA for 5 min. Cultures were pelleted again and resuspended in fresh M9 minimal media to remove EDTA before the addition of 30 μM 3,3′-diethyloxacarbocynanine iodide (DiOC2 ([3]); Invitrogen). […] Fluorescence was measured immediately at 37 °C every 3 min for up to 3 h using a SpectraMax Gemini EM microplate reader set to 450 nm excitation and 510 nm emission wavelengths. Fluorescence curves were normalized to wells containing only dye and then plotted and analyzed using GraphPad Prism 9. Data at 15-min intervals are presented as mean and standard deviation of the mean for ease of visualization. Experiments were performed in duplicate and repeated on three independent days."}}, "note": "Where a SMILES comes first, the peptide text is derived from it. [ ]: non-standard residue; d: D form. Sar = CNCC(=O)O", "data": [{"molecule": "CC[C@H](C)[C@H](NC(=O)CNC(=O)[C@H](CC(C)C)NC(=O)[C@H](Cc1c[nH]c2ccccc12)NC(=O)[C@H](C)NC(=O)[C@@H](NC(=O)[C@@H](NC(=O)[C@H](CCSC)NC(=O)[C@@H](NC(=O)[C@H](C)NC(=O)[C@H](Cc1ccccc1)NC(=O)[C@H](C)NC(=O)[C@H](CC(C)C)NC(=O)[C@H](CC(C)C)NC(=O)CNC(=O)[C@@H]1CCCN1C(=O)[C@@H](NC(=O)CN(C)C(=O)CN(C)C(=O)CN(C)C(=O)[C@H](C)NC(C)=O)C(C)C)[C@@H](C)CC)[C@@H](C)CC)[C@@H](C)CC)C(=O)N[C@@H](C)C(=O)N[C@H](C(=O)N[C@H](C(=O)N[C@@H](CCCCN)C(=O)N[C@@H](CC(C)C)C(=O)N[C@@H](CCCCN)C(=O)N[C@@H](CCCCN)C(=O)N[C@@H](CCCCN)C(=O)N[C@@H](CCCCN)C(N)=O)[C@@H](C)CC)[C@@H](C)CC", "note": "[TM1-3] (Ac-A[Sar][Sar][Sar]VPGLLAFAIMIIAWLGIAIIKLKKKK-NH2)", "values": [{"measurement": "MIC", "setting": "E. coli K12 [1]", "result": ">64", "unit": "µM"}, {"measurement": "Tryptophan fluorescence quenching by PC-Br(11,12)-containing LUVs (depth of insertion)", "setting": "[2]", "result": "penetrate deeper into the lipid bilayer"}]}, {"molecule": "CC[C@H](C)[C@H](NC(=O)[C@H](C)NC(=O)[C@H](CCSC)NC(=O)[C@H](C)NC(=O)[C@@H](NC(=O)[C@H](Cc1ccccc1)NC(=O)CNC(=O)[C@H](CC(C)C)NC(=O)[C@H](CC(C)C)NC(=O)CNC(=O)[C@@H]1CCCN1C(=O)[C@@H](NC(=O)CN(C)C(=O)CN(C)C(=O)CN(C)C(=O)[C@H](C)NC(C)=O)C(C)C)[C@@H](C)CC)C(=O)N[C@@H](Cc1c[nH]c2ccccc12)C(=O)N[C@H](C(=O)N[C@@H](CC(C)C)C(=O)N[C@H](C(=O)N[C@@H](C)C(=O)N[C@H](C(=O)N[C@H](C(=O)N[C@@H](C)C(=O)N[C@@H](CCCCN)C(=O)N[C@@H](CC(C)C)C(=O)N[C@@H](CCCCN)C(=O)N[C@@H](CCCCN)C(=O)N[C@@H](CCCCN)C(=O)N[C@@H](CCCCN)C(N)=O)[C@@H](C)CC)[C@@H](C)CC)[C@@H](C)CC)[C@@H](C)CC", "note": "[TM1-4] (Ac-A[Sar][Sar][Sar]VPGLLGFIAMAIWILIAIIAKLKKKK-NH2)", "values": [{"measurement": "MIC", "setting": "E. coli K12 [1]", "result": ">64", "unit": "µM"}, {"measurement": "Tryptophan fluorescence quenching by PC-Br(11,12)-containing LUVs (depth of insertion)", "setting": "[2]", "result": "penetrate deeper into the lipid bilayer"}, {"measurement": "Peptide secondary structure in the aqueous phase (CD)", "setting": "[3]", "result": "strongest helix"}]}, {"molecule": "CC[C@H](C)[C@H](NC(=O)[C@H](C)NC(=O)[C@H](CC(C)C)NC(=O)CNC(=O)CNC(=O)[C@H](C)NC(=O)[C@H](CC(C)C)NC(=O)[C@H](CCSC)NC(=O)[C@@H](NC(=O)[C@@H](NC(=O)[C@@H](NC(=O)[C@H](C)NC(=O)[C@@H](NC(=O)[C@@H](NC(=O)[C@H](Cc1c[nH]c2ccccc12)NC(=O)[C@H](C)NC(=O)[C@H](Cc1ccccc1)NC(=O)[C@@H](NC(=O)[C@@H]1CCCN1C(=O)CN(C)C(=O)CN(C)C(=O)CN(C)C(=O)[C@H](C)NC(C)=O)[C@@H](C)CC)C(C)C)[C@@H](C)CC)[C@@H](C)CC)[C@@H](C)CC)[C@@H](C)CC)C(=O)N[C@@H](CC(C)C)C(=O)N[C@@H](CCCCN)C(=O)N[C@@H](CC(C)C)C(=O)N[C@@H](CCCCN)C(=O)N[C@@H](CCCCN)C(=O)N[C@@H](CCCCN)C(=O)N[C@@H](CCCCN)C(N)=O", "note": "[TM1-1] (Ac-A[Sar][Sar][Sar]PIFAWVIAIIIMLAGGLAILKLKKKK-NH2)", "values": [{"measurement": "MIC", "setting": "E. coli K12 [1]", "result": ">64", "unit": "µM"}, {"measurement": "Dissipation of the proton motive force (DiOC2(3) RFU)", "setting": "E. coli K12 [4]", "result": "re-establish the PMF back in the range of untreated cultures"}]}, {"molecule": "CC[C@H](C)[C@H](NC(=O)[C@H](C)NC(=O)[C@@H](NC(=O)[C@H](CC(C)C)NC(=O)[C@@H](NC(=O)[C@H](Cc1c[nH]c2ccccc12)NC(=O)CNC(=O)[C@H](C)NC(=O)[C@H](CCSC)NC(=O)[C@H](C)NC(=O)CNC(=O)[C@H](Cc1ccccc1)NC(=O)[C@@H](NC(=O)[C@H](CC(C)C)NC(=O)[C@H](CC(C)C)NC(=O)[C@@H](NC(=O)[C@@H]1CCCN1C(=O)[C@@H](NC(=O)CN(C)C(=O)CN(C)C(=O)CN(C)C(=O)[C@H](C)NC(C)=O)C(C)C)[C@@H](C)CC)[C@@H](C)CC)[C@@H](C)CC)[C@@H](C)CC)C(=O)N[C@H](C(=O)N[C@@H](C)C(=O)N[C@@H](CCCCN)C(=O)N[C@@H](CC(C)C)C(=O)N[C@@H](CCCCN)C(=O)N[C@@H](CCCCN)C(=O)N[C@@H](CCCCN)C(=O)N[C@@H](CCCCN)C(N)=O)[C@@H](C)CC", "note": "[TM1-2] (Ac-A[Sar][Sar][Sar]VPILLIFGAMAGWILIAIIAKLKKKK-NH2)", "values": [{"measurement": "MIC", "setting": "E. coli K12 [1]", "result": ">64", "unit": "µM"}, {"measurement": "Dissipation of the proton motive force (DiOC2(3) RFU)", "setting": "E. coli K12 [4]", "result": "re-establish the PMF back in the range of untreated cultures"}]}, {"molecule": "CC[C@H](C)[C@H](NC(=O)CN)C(=O)NCC(=O)N[C@@H](C)C(=O)N[C@H](C(=O)N[C@@H](CC(C)C)C(=O)N[C@@H](CCCCN)C(=O)N[C@H](C(=O)N[C@@H](CC(C)C)C(=O)N[C@H](C(=O)N[C@H](C(=O)NCC(=O)N[C@@H](CC(C)C)C(=O)N1CCC[C@H]1C(=O)N[C@@H](C)C(=O)N[C@@H](CC(C)C)C(=O)N[C@H](C(=O)N[C@@H](CO)C(=O)N[C@@H](Cc1c[nH]c2ccccc12)C(=O)N[C@H](C(=O)N[C@@H](CCCCN)C(=O)N[C@@H](CCCNC(=N)N)C(=O)N[C@@H](CCCCN)C(=O)N[C@@H](CCCNC(=N)N)C(=O)N[C@@H](CCC(N)=O)C(=O)N[C@@H](CCC(N)=O)C(N)=O)[C@@H](C)CC)[C@@H](C)CC)[C@@H](C)O)[C@@H](C)O)C(C)C)C(C)C", "note": "[Melittin, reference compound]", "values": [{"measurement": "MIC", "setting": "E. coli K12 [1]", "result": "5 ± 2", "unit": "µM"}]}, {"molecule": "carbonyl cyanide m-chlorophenylhydrazine [CCCP, reference compound]", "values": [{"measurement": "Dissipation of the proton motive force (DiOC2(3) RFU)", "setting": "E. coli K12 [4]", "result": "immediate increase in RFU"}]}]}
